Measured values reported in ChEMBL document CHEMBL1201862, “PubChem BioAssay data set” (2004).
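Interpolation was linear, between the two tested concentrations surrounding the appropriate level; five concentrations were tested over 48 hours in 96-well plates. The concentration for 50% growth inhibition is given as GI50.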 Calls of active or inactive are those of the source. Rule as the data show it: active = GI50 up to about 1.1 µM and inactive = higher.

What was measured:
Test in all cases: inhibition of tumour cell growth, NCI panel, 48 h
[1] = tested on: COLO 205
[2] = tested on: DU-145
[3] = tested on: HCT-116
[4] = tested on: HCT-15
[5] = tested on: HOP-92
[6] = tested on: Hs-578T
[7] = tested on: KM12
[8] = tested on: LOX IMVI
[9] = tested on: M14
[10] = tested on: NCI-H460
[11] = tested on: OVCAR-5
[12] = tested on: PC-3
[13] = tested on: SF-268
[14] = tested on: SF-295
[15] = tested on: SK-MEL-28
[16] = tested on: SNB-19
[17] = tested on: SNB-75
[18] = tested on: TK-10
[19] = tested on: EKVX
[20] = tested on: MDA-MB-231

SMILES	GI50 [1]	GI50 [2]	GI50 [3]	GI50 [4]	GI50 [5]	GI50 [6]	GI50 [7]	GI50 [8]	GI50 [9]	GI50 [10]	GI50 [11]	GI50 [12]	GI50 [13]	GI50 [14]	GI50 [15]	GI50 [16]	GI50 [17]	GI50 [18]	GI50 [19]	GI50 [20]
C/C(=C\C(=N\NC(=N)N)c1ccccc1)c1ccccc1	0.0348 µM (active)	0.406 µM (active)	0.273 µM (active)	1.99 µM	0.716 µM (active)	1.32 µM (inactive)	1.17 µM (inactive)	1.23 µM (inactive)	1.17 µM (inactive)	2.25 µM (inactive)	0.64 µM (active)	0.313 µM (active)	0.459 µM (active)	0.409 µM (active)	2.58 µM (inactive)	1.6 µM (inactive)	4.28 µM (inactive)	1.17 µM (inactive)	–	–
CCOC(=O)c1cn(CC)c(=O)n2c1nc1ccccc12	> 100 µM (inactive)	45.5 µM (inactive)	50.6 µM (inactive)	40.2 µM	30.1 µM (inactive)	–	59.6 µM (inactive)	31.9 µM (inactive)	> 100 µM (inactive)	35.4 µM (inactive)	> 100 µM (inactive)	> 100 µM (inactive)	–	> 100 µM (inactive)	> 100 µM (inactive)	> 100 µM (inactive)	> 100 µM (inactive)	–	> 100 µM (inactive)	> 100 µM (inactive)
Cn1c(N)c(/C=N/NC(=O)CC#N)c(=O)n(C)c1=O	> 100 µM (inactive)	> 100 µM (inactive)	> 100 µM (inactive)	> 100 µM	–	> 100 µM (inactive)	> 100 µM (inactive)	> 100 µM (inactive)	> 100 µM (inactive)	> 100 µM (inactive)	> 100 µM (inactive)	> 100 µM (inactive)	> 100 µM (inactive)	> 100 µM (inactive)	> 100 µM (inactive)	> 100 µM (inactive)	> 100 µM (inactive)	> 100 µM (inactive)	> 100 µM (inactive)	> 100 µM (inactive)
Cc1ccc(/N=N/C(=O)NNc2ccc(C)c([N+](=O)[O-])c2)cc1[N+](=O)[O-]	–	25.1 µM (inactive)	23.7 µM (inactive)	30.1 µM	–	–	–	17.3 µM (inactive)	40 µM (inactive)	28.6 µM (inactive)	30.1 µM (inactive)	18.7 µM (inactive)	28.6 µM (inactive)	–	26.1 µM (inactive)	36.3 µM (inactive)	19.6 µM (inactive)	45.1 µM (inactive)	–	36.6 µM (inactive)
COc1cc2ccc3c4ccccc4cnc3c2cc1OC	> 100 µM (inactive)	–	> 100 µM (inactive)	> 100 µM	> 100 µM (inactive)	–	> 100 µM (inactive)	> 100 µM (inactive)	> 100 µM (inactive)	> 100 µM (inactive)	> 100 µM (inactive)	–	> 100 µM (inactive)	> 100 µM (inactive)	> 100 µM (inactive)	> 100 µM (inactive)	> 100 µM (inactive)	> 100 µM (inactive)	> 100 µM (inactive)	–
COc1ccc(/N=N/c2c(O)ccc3ccccc23)cc1	> 100 µM (inactive)	–	> 100 µM (inactive)	57.8 µM	19.6 µM (inactive)	11.2 µM (inactive)	12.1 µM (inactive)	49.2 µM (inactive)	26.1 µM (inactive)	–	17.5 µM (inactive)	28.2 µM (inactive)	16.1 µM (inactive)	12.9 µM (inactive)	> 100 µM (inactive)	–	16.4 µM (inactive)	17.1 µM (inactive)	14.3 µM (inactive)	24.5 µM (inactive)
O=C1C(=O)N(c2ccc(Cl)cc2)C(=O)C(=O)C1c1nc2ccccc2s1	> 100 µM (inactive)	–	> 100 µM (inactive)	> 100 µM	> 100 µM (inactive)	–	> 100 µM (inactive)	> 100 µM (inactive)	> 100 µM (inactive)	> 100 µM (inactive)	> 100 µM (inactive)	–	> 100 µM (inactive)	> 100 µM (inactive)	> 100 µM (inactive)	> 100 µM (inactive)	> 100 µM (inactive)	> 100 µM (inactive)	> 100 µM (inactive)	–
N#Cc1c(O)c2ccccc2[nH]c1=O	> 100 µM (inactive)	> 100 µM (inactive)	> 100 µM (inactive)	> 100 µM	> 100 µM (inactive)	–	> 100 µM (inactive)	> 100 µM (inactive)	> 100 µM (inactive)	–	> 100 µM (inactive)	> 100 µM (inactive)	–	> 100 µM (inactive)	> 100 µM (inactive)	> 100 µM (inactive)	> 100 µM (inactive)	> 100 µM (inactive)	> 100 µM (inactive)	> 100 µM (inactive)
BrCCCCCOc1ccc(-c2c3ccccc3c(-c3ccc(OCCCCCBr)cc3)c3ccccc23)cc1	> 100 µM (inactive)	> 100 µM (inactive)	> 100 µM (inactive)	> 100 µM	–	35.7 µM (inactive)	> 100 µM (inactive)	–	> 100 µM (inactive)	> 100 µM (inactive)	> 100 µM (inactive)	> 100 µM (inactive)	> 100 µM (inactive)	> 100 µM (inactive)	> 100 µM (inactive)	> 100 µM (inactive)	38.5 µM (inactive)	> 100 µM (inactive)	> 100 µM (inactive)	> 100 µM (inactive)
